The results in this text go back to publication PMC9361549, “High-affinity SOAT1 ligands remodeled cholesterol metabolism program to inhibit tumor growth” (BMC Medicine, 2022).

The target in data set [1] is T1, SOAT1 (Homo sapiens, UniProt P35610).
T1 sequence (P35610 1-550): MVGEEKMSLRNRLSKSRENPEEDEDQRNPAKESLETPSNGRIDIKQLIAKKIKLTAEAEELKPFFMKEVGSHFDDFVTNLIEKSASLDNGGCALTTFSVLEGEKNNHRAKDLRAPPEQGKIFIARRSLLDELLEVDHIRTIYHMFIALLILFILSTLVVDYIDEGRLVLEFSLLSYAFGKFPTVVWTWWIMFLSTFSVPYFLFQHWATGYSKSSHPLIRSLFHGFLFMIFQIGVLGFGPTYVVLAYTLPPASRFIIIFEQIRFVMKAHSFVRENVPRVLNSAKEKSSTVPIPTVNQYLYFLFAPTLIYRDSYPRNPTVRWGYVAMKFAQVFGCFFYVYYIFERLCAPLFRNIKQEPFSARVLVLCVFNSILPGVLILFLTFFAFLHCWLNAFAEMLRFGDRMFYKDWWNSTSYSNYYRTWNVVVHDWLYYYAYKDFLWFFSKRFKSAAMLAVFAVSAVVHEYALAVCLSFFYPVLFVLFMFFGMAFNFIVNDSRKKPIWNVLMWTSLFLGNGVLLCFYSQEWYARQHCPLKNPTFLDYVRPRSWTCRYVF
The experiment in a line: SPR (Biacore T200, CM5 chip, immobilised SOAT1). It counts as binding. To be noted: PBS running buffer with 5% DMSO; 0.0195 nM to 20 μM. (SPR reads the build-up and loss of mass on a sensor chip optically.)

The target in data set [2] is T1, SOAT1. Description: SPR single-concentration screen (Biacore T200, CM5 chip, immobilised SOAT1). Type of data set: binding. To be noted: 100 nmol/L compound; PBS with 5% DMSO; positive control.
Data set [3] deals with the molecule itself. The experiment in a line: SEC; Superdex 200 10/300 GL in 25 mM Tris pH 8.0, 150 mM NaCl, 0.02% GDN, after nickel affinity purification; fractions checked by SDS-PAGE. On the technique in general: SEC sorts molecules by how far they enter the pores of the column.

Turning to `Cc1cc(C)c2c(c1)[C@@H](N(Cc1cc(C(F)(F)F)cc(C(F)(F)F)c1)c1nnn(C)n1)CCCN2C[C@H]1CC[C@H](C(=O)O)CC1` [evacetrapib], the KD at SOAT1 [1] worked out at 3.91 E^−6 M. Still for that read-out and setting: then `CN(C)CC[C@H](CSc1ccccc1)Nc1ccc(S(=O)(=O)NC(=O)c2ccc(N3CCN(Cc4ccccc4-c4ccc(Cl)cc4)CC3)cc2)cc1[N+](=O)[O-]` [ABT-737], with 7.19 E^−7 M.

For the molecule `CC(C)c1cc(C(C)C)c(CC(=O)NS(=O)(=O)Oc2c(C(C)C)cccc2C(C)C)c(C(C)C)c1` [avasimibe], on SOAT1 [2], the “SPR single-concentration screen (Biacore T200, CM5 chip, immobilised SOAT1)” value is “including three positive controls: avasimibe, nevanimibe, and CI-976”. As for `CCCCCCCCCCC(C)(C)C(=O)Nc1c(OC)cc(OC)cc1OC` [CI-976], the “SPR single-concentration screen (Biacore T200, CM5 chip, immobilised SOAT1)” value at SOAT1 [2] is “including three positive controls: avasimibe, nevanimibe, and CI-976”.

Molecule `Cc1cn(-c2cc(NC(=O)c3ccc(C)c(Nc4nccc(-c5cccnc5)n4)c3)cc(C(F)(F)F)c2)cn1` [nilotinib] gave a KD at SOAT1 [1] of 2.02E^−7 M.

B1: sterol O-acyltransferase 1 (SOAT1), human, with a carboxy-terminal 6xHis-tag (enzyme, UniProt P35610-1 1-550, looked up)
chain: T1 sequence (P35610 1-550)
notes: sterol O-acyltransferase 1 (SOAT1), human; NCBI ID 6646) cloned into pCAG; no removal of the His-tag is described; also called SOAT1 protein
As a reminder, the stoichiometry N is a count of units in the complex or per binding partner. In the case of B1, the “stoichiometry N” value in data set [3] came to 2.
